In patent US20250098675A1, “A METHOD OF CONTROLLING RESISTANT AND NON-RESISTANT PESTS” (UPL CORPORATION LIMITED, priority 2021, published 2025):
Where two headings read alike, the source gives them in different places.

Experiments:
Format in all cases: in vivo
Mahanarva fimbriolata = assay: Field trial, % control of Mahanarva fimbriolata nymphs and adult insects in sugarcane
Experimental: Trials were carried out in field to assess efficacy of flupyrimin against Mahanarva fimbriolata. Evaluation was done to check % control of nymphs and adult insects at intervals of 30 DAA and 60 DAA (for nymphs) and 7, 30 and 60 DAA (for adult insects). The efficacy was compared with standard insecticides thiamethoxam and ethiprole.

[1] = tested on: resistant Mahanarva fimbriolata; assay: Greenhouse pot trial, drench, mortality of resistant nymphs; conditions: for mortality at 400 g/ha / mortality at 250 g/ha: Mahanarva fimbriolata, soil; for mortality at 400 g/ha: read-out: Mortality (%) of Nymphs-Resistant population % Mortality, 400 g.a.i/ha; for mortality at 250 g/ha: read-out: Mortality (%) of Nymphs-Resistant population % Mortality, 250 g.a.i/ha
Experimental: The sugarcane plants were sown under greenhouse in pots. Artificially, each pot was infested with 10 nymphs in 3rd/4th instar. Infestation was done 24 h before of application for insect acclimatization. The treatments were applied via drenching, after infestation. The assessments were made at 3 and 5 days after infestation in 4 replications.

adult Sphenophorus levis = assay: Control efficacy against adults, plots sprayed
Experimental: The efficacy of flupyrimin was determined against adult and the larvae stage of Sphenophorus levis. To evaluate the efficacy of flupyrimin plots with ten Sphenophorus levis adults were populated. Flupyrimin at a concentration of 500 g/L was used to treat the plots by spraying. Each plot received a 10 cm splitted lengthwise suarcane stem piece as feed and accordingly each plot was subjected to treatment conditions as depicted in the table below.

[2] = tested on: larvae Sphenophorus levis; assay: Larvae bioassay, residual contact and ingestion, dipped sugarcane stalks; conditions: for Larvae efficacy control (%): 1DAA
Experimental: The efficacy of flupyrimin was determined against the larvae stage of Sphenophorus levis. Accordingly, the larvae bioassay method was residual contact and ingestion. The sugarcane stalks were dipped in a insecticide solution then placed on a papart towel to dry. The sugarcane stalks were placed in glass tubes, then S. levis first stage and last instar lavae were introduced in each tube separately. The mortality achieved was 100% at 1 DAA. The treatments condidtions and the results are depicted in Table 8 below: […]

CC[S+]([O-])c1c(C#N)nn(-c2c(Cl)cc(C(F)(F)F)cc2Cl)c1N (centres unmarked) [Ethiprole, ethiprole]
Adults % Control (Mahanarva fimbriolata; 400 g a.i./ha, 7 DAA): 100%
Adults % Control (Mahanarva fimbriolata; 400 g a.i./ha, 30 DAA): 100%
Nymphs % Control (Mahanarva fimbriolata; 400 g a.i./ha, 30 DAA): 95%
Adults % Control (Mahanarva fimbriolata; 400 g a.i./ha, 60 DAA): 100%
Nymphs % Control (Mahanarva fimbriolata; 400 g a.i./ha, 60 DAA): 100%
mortality at 400 g/ha ([1]; 0 DAA 3 DAI): 33%
mortality at 400 g/ha ([1]; 0 DAA 5 DAI): 45%

CN1COCN(Cc2cnc(Cl)s2)/C1=N\[N+](=O)[O-] [Thiamethoxam, thiamethoxam]
Adults % Control (Mahanarva fimbriolata; 250 g a.i./ha, 7 DAA): 60%
Adults % Control (Mahanarva fimbriolata; 250 g a.i./ha, 30 DAA): 50%
Nymphs % Control (Mahanarva fimbriolata; 250 g a.i./ha, 30 DAA): 86%
Adults % Control (Mahanarva fimbriolata; 250 g a.i./ha, 60 DAA): 75%
Nymphs % Control (Mahanarva fimbriolata; 250 g a.i./ha, 60 DAA): 90%
mortality at 250 g/ha ([1]; 0 DAA 3 DAI): 23%
mortality at 250 g/ha ([1]; 0 DAA 5 DAI): 25%

O=C(N=c1ccccn1Cc1ccc(Cl)nc1)C(F)(F)F [Flupyrimin, flupyrimin]
Adults % Control (Mahanarva fimbriolata; 150 g a.i./ha, 7 DAA): 80%
Adults % Control (Mahanarva fimbriolata; 150 g a.i./ha, 30 DAA): 100%
Nymphs % Control (Mahanarva fimbriolata; 150 g a.i./ha, 30 DAA): 62%
Adults % Control (Mahanarva fimbriolata; 150 g a.i./ha, 60 DAA): 75%
Nymphs % Control (Mahanarva fimbriolata; 150 g a.i./ha, 60 DAA): 95%
Adults % Control (Mahanarva fimbriolata; 200 g a.i./ha, 7 DAA): 80%
Adults % Control (Mahanarva fimbriolata; 200 g a.i./ha, 30 DAA): 50%
Nymphs % Control (Mahanarva fimbriolata; 200 g a.i./ha, 30 DAA): 97%
Adults % Control (Mahanarva fimbriolata; 200 g a.i./ha, 60 DAA): 100%
Nymphs % Control (Mahanarva fimbriolata; 200 g a.i./ha, 60 DAA): 95%
Adults % Control (Mahanarva fimbriolata; 250 g a.i./ha, 7 DAA): 60%
Adults % Control (Mahanarva fimbriolata; 250 g a.i./ha, 30 DAA): 100%
Nymphs % Control (Mahanarva fimbriolata; 250 g a.i./ha, 30 DAA): 92%
Adults % Control (Mahanarva fimbriolata; 250 g a.i./ha, 60 DAA): 50%
Nymphs % Control (Mahanarva fimbriolata; 250 g a.i./ha, 60 DAA): 100%
Nymphs % Control (Mahanarva fimbriolata; 250 g a.i./ha, 60 DAA, listed as flupyrimin): complete control
Adults % Control (Mahanarva fimbriolata; 300 g a.i./ha, 7 DAA): 40%
Adults % Control (Mahanarva fimbriolata; 300 g a.i./ha, 30 DAA): 25%
Nymphs % Control (Mahanarva fimbriolata; 300 g a.i./ha, 30 DAA): 81%
Adults % Control (Mahanarva fimbriolata; 300 g a.i./ha, 60 DAA): 100%
Nymphs % Control (Mahanarva fimbriolata; 300 g a.i./ha, 60 DAA): 95%
control of S. levis adults (in words) (adult Sphenophorus levis; 9 DAA, no dose stated): almost complete control
Adults efficacy control (%) (adult Sphenophorus levis; 150 g of a.i/ha (0.30 kg-l/ha), 1DAA): 46.3%
Adults efficacy control (%) (adult Sphenophorus levis; 150 g of a.i/ha (0.30 kg-l/ha), second value column, time not printed): 75.1%
Adults efficacy control (%) (adult Sphenophorus levis; 150 g of a.i/ha (0.30 kg-l/ha), third value column, time not printed): 97.3%
Adults efficacy control (%) (adult Sphenophorus levis; 250 g of a.i/ha (0.50 kg-l/ha), 1DAA): 61.0%
Adults efficacy control (%) (adult Sphenophorus levis; 250 g of a.i/ha (0.50 kg-l/ha), second value column, time not printed): 80.9%
Adults efficacy control (%) (adult Sphenophorus levis; 250 g of a.i/ha (0.50 kg-l/ha), third value column, time not printed): 100%
Adults efficacy control (%) (adult Sphenophorus levis; 300 g of a.i/ha (0.60 kg-l/ha), 1DAA): 59.5%
Adults efficacy control (%) (adult Sphenophorus levis; 300 g of a.i/ha (0.60 kg-l/ha), second value column, time not printed): 79.5%
Adults efficacy control (%) (adult Sphenophorus levis; 300 g of a.i/ha (0.60 kg-l/ha), third value column, time not printed): 99.1%
Adults efficacy control (%) (adult Sphenophorus levis; 500 g of a.i/ha (1.00 kg-l/ha), 1DAA): 56.9%
Adults efficacy control (%) (adult Sphenophorus levis; 500 g of a.i/ha (1.00 kg-l/ha), second value column, time not printed): 79.9%
Adults efficacy control (%) (adult Sphenophorus levis; 500 g of a.i/ha (1.00 kg-l/ha), third value column, time not printed): 97.3%
Larvae efficacy control (%) ([2]; 150 g of a.i/ha (0.30 kg-l/ha)): 100%
Larvae efficacy control (%) ([2]; 250 g of a.i/ha (0.50 kg-l/ha)): 100%
Larvae efficacy control (%) ([2]; 300 g of a.i/ha (0.60 kg-l/ha)): 100%
Larvae efficacy control (%) ([2]; 500 g of a.i/ha (1.00 kg-l/ha)): 100%
mortality of S. levis larvae ([2]; first stage and last instar larvae, 1 DAA, no dose stated): 100%
Mortality (%) of Nymphs-Resistant population % Mortality ([1]; 150 g.a.i/ha, 0 DAA 3 DAI): 85%
Mortality (%) of Nymphs-Resistant population % Mortality ([1]; 150 g.a.i/ha, 0 DAA 5 DAI): 98%
Mortality (%) of Nymphs-Resistant population % Mortality ([1]; 200 g.a.i/ha, 0 DAA 3 DAI): 97%
Mortality (%) of Nymphs-Resistant population % Mortality ([1]; 200 g.a.i/ha, 0 DAA 5 DAI): 100%
Mortality (%) of Nymphs-Resistant population % Mortality ([1]; 250 g.a.i/ha, 0 DAA 3 DAI): 98%
Mortality (%) of Nymphs-Resistant population % Mortality ([1]; 250 g.a.i/ha, 0 DAA 5 DAI): 98%
Mortality (%) of Nymphs-Resistant population % Mortality ([1]; 300 g.a.i/ha, 0 DAA 3 DAI): 97%
Mortality (%) of Nymphs-Resistant population % Mortality ([1]; 300 g.a.i/ha, 0 DAA 5 DAI): 100%
control of resistant nymphs (in words) ([1]; summary of the table, no dose stated): effective in completely controlling resistant nymphs
